Measured values from patent publication US10548861B2 (Academia Sinica, priority 2015, dated 2020).
Several values for one entry are separate records, joined by “and”; a condition that tells them apart may be missing. Equal values may be shown once. Read-outs that look alike come from different tables or passages of the source.

Legend:
[1] = tested on: PC9 (EGFR); test: cells; assay type: cell-based; conditions: Homo sapiens, PC-9
[2] = tested on: Cutaneous fetal fibroblasts; test: 72 hr cytotoxicity: Fetal fibroblasts; assay type: cell-based; conditions: Homo sapiens, Fibroblast
[3] = tested on: CALU-3; test: cells; assay type: cell-based; conditions: Homo sapiens
[4] = tested on: HCC827; test: cells; assay type: cell-based; conditions: Homo sapiens
[5] = tested on: H1395; test: cells; assay type: cell-based; conditions: Homo sapiens, NCI-H1395
[6] = tested on: Karpas-422; conditions: human
[7] = tested on: MV4;11-GFP/Luciferase cells; test: AML xenograft, bioimaging; assay type: in vivo, NSG mice; conditions: 30 mg/kg every second day x5 from d14; day 28
From the text: […] mice were transplanted with 10^5 MV4;11-GFP/Luciferase transduced cells injected i.v. into each of ten male 12 wk-old NSG mice.

[8] = tested on: BEAS2B SV40; test: cells; assay type: cell-based; conditions: Homo sapiens, BEAS-2B, 72 h
[9] = tested on: Ewing's sarcoma primary patient tumor; test: Cyclophosphamide-resistant primary Ewing's sarcoma xenograft; assay type: in vivo, NSG mice; conditions: cyclophosphamide 70 mg/kg i.p. x3, then BO-1055 30 mg/kg iv x4
[10] = tested on: H3122 (EML4-ALK); test: cells; assay type: cell-based; conditions: Homo sapiens, NCI-H3122
[11] = tested on: IARC-EW1; test: Cytotoxicity: Ewing's sarcoma; conditions: Homo sapiens, read-out: cytotoxic activity (IC50)
[12] = tested on: CCRF-CEM/VBL; test: Cytotoxicity: vinblastine-resistant subline; assay type: cell-based; conditions: Homo sapiens
[13] = tested on: AML cell lines, MLL-AF9 transduced CD34+ lines and primary AML LSC; test: Cytotoxicity on leukemia panel; conditions: for IC50: Homo sapiens
[14] = tested on: H1993 (MET amp.); test: Cytotoxicity: NSCLC; assay type: cell-based; conditions: Homo sapiens, NCI-H1993
[15] = tested on: CL100T1; test: cells; assay type: cell-based; conditions: Homo sapiens
[16] = tested on: H1650; test: cells; assay type: cell-based; conditions: Homo sapiens, NCI-H1650
[17] = tested on: SUDHL-6; conditions: human
[18] = tested on: primary Pre-B-ALL-GFP-Lu cells; test: Primary Pre-B-ALL xenograft, bioimaging and survival; assay type: in vivo, NSG mice; conditions: Q10D2x from day 7
[19] = tested on: HEL 299; test: 72 hr cytotoxicity: Fetal lung fibroblasts; assay type: cell-based; conditions: Homo sapiens; HEL 299, 72 hr
[20] = tested on: HCC15; test: cells; assay type: cell-based; conditions: Homo sapiens
[21] = tested on: H525; test: cells; assay type: cell-based; conditions: Homo sapiens
[22] = tested on: ORA; test: Cytotoxicity: Ewing's sarcoma; conditions: Homo sapiens, read-out: cytotoxic activity (IC50)
[23] = tested on: H3255 (EGFR); test: cells; assay type: cell-based; conditions: Homo sapiens, NCI-H3255
[24] = tested on: Human T-ALL primary cells; test: Cytotoxicity: patient sample; assay type: cell-based
[25] = tested on: BER; test: Cytotoxicity: Sarcoma, DSRCT; conditions: Homo sapiens, read-out: cytotoxic activity (IC50)
[26] = tested on: NL31-PE; test: 72 hr cytotoxicity: lung epithelium; assay type: cell-based; conditions: Homo sapiens
[27] = tested on: CALU-6 (KRAS); test: cells; assay type: cell-based; conditions: Homo sapiens
[28] = tested on: NOSE; test: cells; assay type: cell-based; conditions: Homo sapiens, 72 h
[29] = Pharmacokinetics, IV bolus 10 mg/kg (HPLC-PDA); assay type: in vivo, Sprague-Dawley rats; conditions: rat, IV 10 mg/kg
Protocol: Serial blood samples were collected from the jugular vein at 0, 5, 10, 15, 30, 45, 60, 90, 120, 150, 180, 240, 300, 360 min after dosing. […] All pharmacokinetic analysis was carried out using the WinNonlin Standard Edition Version 1.0 (Scientific Consulting Inc., Apex, N.C., USA).

[30] = tested on: SVGp12; test: 72 hr cytotoxicity: Astroglia; assay type: cell-based; conditions: Homo sapiens; SVGp12, 72 hr
[31] = tested on: REC-1; test: Cytotoxicity: Mantle Cell Lymphoma; conditions: Homo sapiens, Rec1
[32] = tested on: DNA; test: Alkaline agarose gel shift DNA cross-linking assay; assay type: biochemical
[33] = tested on: A673; test: Cytotoxicity: Ewing's sarcoma; conditions: Homo sapiens, A673, read-out: cytotoxic activity (IC50)
[34] = tested on: MOLM13 MLL-AF9; test: Cytotoxicity: AML line; assay type: cell-based; conditions: Homo sapiens, MOLM-13
[35] = Non-GLP acute 14-day intravenous toxicity; conditions: for LD50 at 14 days: ICR, mouse, in vivo, iv, single i.v.
[36] = tested on: FBMC; test: 72 hr cytotoxicity: fetal BM stroma; assay type: cell-based; conditions: Homo sapiens
[37] = tested on: spontaneous murine B-cell lymphoma on MS5 stroma; test: cells; conditions: Mus musculus, light or radiation study

CN(C)CCNC(=O)c1cccc(NC(=O)Nc2ccc(N(CCCl)CCCl)cc2)c1.Cl [BO-1055, ureidomustine]
IC50 [1]: ≥ 10 µM | IC50 [2]: ≥ 10 µM | IC50 [3]: ≥ 10 µM | IC50 [4]: 5.53 µM | IC50 [5]: ≥ 10 µM | IC50 [6]: 6.99 µM | tumor by bioimaging [7]: no significantly detectable tumor in any of the five BO-1055 treated mice | IC50 [8]: ≥ 10 µM | tumor response [9]: regression of cyclophosphamide-refractory tumors | IC50 [10]: 4.87 µM | IC50 [11]: 0.43 µM | IC50 [12]: 0.8 ± 0.01 µM | IC50 ([13]; MLL-AF9): ≥ 10 µM | IC50 ([13]; MLL-AF9, read-out: IC50 range, 3/7 AML cell lines (highly cytotoxic)): 0.18 to 0.45 µM | IC50 ([13]; MLL-AF9, read-out: IC50 range, LSCs from three patient samples (Monosomy 7, MLL-AF9, Flt3ITD)): 0.12 to 0.9 µM | IC50 ([13]; MLL-AF9, read-out: IC50 range, LSCs of patients with del17, NPM1 mutation, Inversion 16): 6.25 to 7 µM | IC50 ([13]; MLL-AF9, read-out: IC50 range, MLL-AF9+N-RASmut lines): 0.81 to 2.91 µM | IC50 ([13]; read-out: IC50 range, MA10, MA18, MA23): 0.25 to 0.4 µM | IC50 ([13]; read-out: IC50 range, THP1 and MOLM13): 0.18 to 0.45 µM | increase of cytotoxicity by MLL-AF9 introduction into normal CB or BM CD34+ cell ([13]; MLL-AF9 lines vs normal CB CD34+): 25-40 fold | IC50 [14]: 6.72 µM | IC50 [15]: ≥ 10 µM | IC50 [16]: 6.2 µM | IC50 [17]: 3.24 µM | survival longer than control-treated group [18]: ~100 days | IC50 [19]: ≥ 10 µM | IC50 [20]: 6.15 µM | IC50 [21]: 1.4 µM | IC50 [22]: 0.32 µM | IC50 [23]: 2.04 µM | IC50 [24]: 1 µM | IC50 [25]: 2.41 µM | IC50 [26]: ≥ 10 µM | IC50 [27]: 3.31 µM | IC50 [28]: ≥ 10 µM | tissue distribution [29]: accumulated mainly in the kidney, with only a limited amount detected in the brain | IC50 [30]: ≥ 10 µM | IC50 [31]: > 10 µM | DNA inter-strand cross-linking [32]: able to induce DNA inter-strand cross-linking | IC50 [33]: 0.52 µM | IC50 [34]: 0.18 µM | Mortality (N/N) ([35]; 50 mg/kg i.v.): 0/6 | Post dosing deaths, 1st hr ([35]; 50 mg/kg i.v.): 0 | Mortality (N/N) ([35]; 60 mg/kg i.v.): 0/6 | Post dosing deaths, 1st hr ([35]; 60 mg/kg i.v.): 0 | Mortality (N/N) ([35]; 70 mg/kg i.v.): 1/6 | Post dosing deaths, 1st hr ([35]; 70 mg/kg i.v.): 1 | Mortality (N/N) ([35]; 80 mg/kg i.v.): all mice died and 6/6 | Post dosing deaths, 1st hr ([35]; 80 mg/kg i.v.): 6 | Mortality (N/N) ([35]; 100 mg/kg i.v.): 6/6 | Post dosing deaths, 1st hr ([35]; 100 mg/kg i.v.): 6 | LD50 at 14 days ([35]; LD50 95% confidence interval, ICR mice): 58.8 to 107 mg/kg | LD50 at 14 days ([35]; LD50, ICR mice, 14 days): 70 mg/kg | IC50 [36]: 8.48 µM | IC50 [37]: 0.8 µM
